Consider three molecules from US20040071718A1, “Local nasal immunotherapy for allergen-induced airway inflammation” (priority 2002, published 2004).

Common to all, as to format: in vivo
The subject of test [1] is Balb/c mice. Kind of test: IL-5 and IFN-γ levels in sera and BALF (ELISA) after LNIT. Particulars: for IL-5 levels in sera: Example 1, FIG. 3A; for IFN-γ levels in sera: Example 1, FIG. 3B; for IFN-γ / IL-5: Example 2, mean ± SEM, n = 6. The method, then:
(§1) Male Balb/c mice were obtained from the National Laboratory Breeding Research Center in Taiwan and were raised in a specific pathogen-free environment. The mice used were between six and eight weeks of age. Groups of six mice were caged separately according to their treatment.
(§2) Mice were immunized by way of an intraperitoneal (IP) injection of 1 μg/0.1 mL rDp2 emulsified in 4.0 mg/0.062mL aluminum hydroxide Al(OH)3 (Whitehall Lab Ltd. Punchbowl, NSW, Australia) on day 0 and day 7. Following immunization, local nasal immunotherapy (LNIT) was conducted daily from day 14 to day 35 with Dp2 28-40, Dp2 28-40A, FIP alone or FIP mixed with either Dp2 28-40 or Dp2 28-40A (FIP, 50 μg/mouse/day; Dp2 peptide, 1 μg/20 μL) in PBS with 10% glycerol. Normal saline (NS) and irrelevant allergen Bt were used as a negative control. […] On day 28, mice were lightly anesthetized with an IP injection of 60 mg/kg of sodium pentobarbital (Sigma Chemical Co., St Louis, Mo., U.S.A.) and inoculated intratracheally (IT) with 1 μg/50 μL of rDp 2 on day 28 and day 35. Two days subsequent to the second IT inoculation, the mice were sacrificed following the assessment of their pulmonary function (FIG. 1).
IFN-γ and IL-5 were measured using commercially-available ELISA kits, using a specific mouse monoclonal Ab that recognized different epitopes of the cytokine molecules. The lowest detector range was 10 pg/mL. Given that the BALF was considered to be at too diluted a concentration, IL-4 was not measured.
On the technique in general: ELISA stands for enzyme-linked immunosorbent assay.

In test [2] the test system is Balb/c mice. Kind of test: Cytokine producing cells in peripheral blood (flow cytometry) after LNIT. Conditions: for IL-5/IFN-γ (CD4) / IL-5/IFN-γ (CD8): peripheral blood. How it is done:
as §1, §2
Two-color staining methods were used to analyze IFN-γ and IL-5 expression amongst CD4 cells. Leukocytes derived from peripheral blood (PBL) were stimulated with PMA (50 ng/mL), ionomycin (2 μM) and GolgiStop (Cytofix/Cytoperm Plus Pharmingen San Diego, Calif., U.S.A.) for five hours and then washed twice using PBS. The cells were stained with CD4-PerCP, CD8-FITC or IgG1-FITC (PharMingen) at room temperature (RT) for 30 minutes and then washed. Cells were fixed with cytofix/cytoperm at RT for 30 minutes and then stained with anti-cytokine antibody and IgG2a-PE (PharMingen) at RT for 30 minutes and subsequently washed. Both IgG1-FITC and IgG2a-PE were purchased from the same manufacturer as the anticytokine antibodies and the negative controls. Cells were resuspended in 0.5 mL PBS containing 0.1% w/v sodium azide. Mean fluorescence was measured by means of Becton Diskinson flow cytometry (Becton Diskinson, Calif., U.S.A.). A total of 2,000 cells was analyzed for each sample.
(In general: In flow cytometry, cells or beads pass a laser one at a time.)

Test [3] deals with Balb/c mice. Briefly: Lung pathology (HE stain) after LNIT. Particulars: lung tissue two days after IT with rDp2; for pathology: inflammatory cell infiltration and epithelium damage in the airway: Example 1, FIGS. 6A-6F.
Text: FIGS. 6A-6F are photographs showing the pathology of different groups of mice after LNIT. The lung tissues were obtained two days after IT with rDp2. […] (HE stain, ×400).
FIGS. 9A-1˜9F-2 are photographs showing the pathology of different groups of mice following LNIT. The lung tissues were obtained two days subsequent to IT inoculation with rDp2. FIGS. 9A-1, -2: naive mice; FIGS. 9B-1, -2: NS-treated mice; FIGS. 9C-1, -2: DEX-treated mice; FIGS. 9D-1, -2: FIP-fve treated mice; FIGS. 9E-1, -2: Dp2 28-40A+FIP-fve treated mice; and FIGS. 9F-1, -2: Dp2 28-40+FIP-fve treated mice. FIGS. 9A-1, 9B-1, 9C-1, 9D-1, 9E-1 and 9F-1: HE stain, 100×; 9A-2, 9B-2, 9C-2, 9D-2, 9E-2, 9F-2: HE stain, 400×
as §2

The test system of test [4] is Balb/c mice. Briefly: Dp2 specific IgG1, IgG2a and IgE in sera (ELISA) after LNIT. Particulars: for Dp2 specific IgG1 production in the sera: Example 1, FIG. 2A; for Dp2 specific IgG1 production in the sera / Dp2 specific IgG2a production in the sera / Dp2 specific IgE production in the sera: compared with NS group; for Dp2 specific IgG2a production in the sera: Example 1, FIG. 2B; for Dp2 specific IgE production in the sera: Example 1, FIG. 2C. How it is done: Male Balb/c mice were obtained from the National Laboratory Breeding Research Center in Taiwan and were raised in a specific pathogen-free environment. The mice used were between six and eight weeks of age. Groups of six mice were caged separately according to their treatment. Recombinant Dermatophoides pteronyssinus group 2 (rDp2) was prepared as previously described(Tsai J J, et al. Int Arch Allergy Immunol 2000;121:205-10). Dp2 28-40 and Dp2 28-40A were obtained from Dr. Jonathan Lamb (Respiratory Medicine Unit, Edinburgh University, Medical School, Edinburgh, UK) (Verhoef A, and Lamb J R. J Immunol 2000;164:6034-6040). FIP was obtained from Dr. Ko Jiunn-Liang (Institute of Toxicology, Chung Shan Medical University, Taichung, R O C) (J L Ko, et al. Eur. J. Biochem. 1995;228:244-249).
as §2
Blood was obtained from the retro-orbital venous plexus at the commencement and end of the experimental program. Serum IgE, IgG1 and IgG2a titers of anti-Dp2 antibodies were determined using an enzyme-linked immunosorbent assay (ELISA) technique. Microtiter plates (Nunc Lab, Ill., U.S.A.) were coated with 100 μL Dp2 overnight at a concentration of 0.5 μg/mL and left in a 4° C. refrigerator. Microtiter-plate nonspecific binding sites were blocked with 3% BSA in PBS for two hours at room temperature. Plates were washed with PBS-Tween-20 (PBST) three times and stored at −70° C. prior to subsequent use. Subsequent to the addition of a 1:5 dilution for IgE, a 1:100 dilution for IgG1 and a 1:5 dilution for IgG2a of mice serum, plates were incubated at 4° C. overnight, and then washed three times before the antibody (Horse radish peroxidase-conjugated goat anti-mouse IgE and IgG2a Ab 1:800, IgG1 Ab 1:2,000 Southern Biotech Assoc, Inc, Birmingham, Ala., U.S.A.) was added. Following a one-hour incubation at 37° C. and three washes with PBST, the enzyme substrate (2,2″-Azino-bis(3-ethylbenzothiazolin-6-sulfonic acid diammonium salt; Bio-Rad, USA) was added. The reaction was stopped using 50 μL 4N H2SO4 after the reaction had been allowed to continue for 15 minutes, following which the optical density was measured at 450nm using a multiscan spectrophotometer (model A-5682, SLT Lab Instruments, Salzburg, Austria). Results were expressed as ELISA units (EU), one EU being defined as the reciprocal value of the serum dilution that elicited an optical density of 1.0. Such a value was selected so as to always lie within the linear component of the dilution curve. To assure reproducibility, a known serum was included with each test as a standard.

The mark [5] stands for this setting: Example 1, percentage of positive stained cells in the PBMC of six mice.
The mark [6] stands for this setting: Example 1, ratio of IL-5 to IFN-γ producing CD4 cells.
Setting [7] is: Example 1, ratio of IL-5 to IFN-γ producing CD8 cells.
Where [8] appears, read: Example 2, percentage of total leukocytes in the peripheral blood of six mice.

In the case of “Dp2 28-40: Dermatophoides pteronyssinus group 2 (Dp2) epitope peptide, residues 28-40, amino acid sequence ID No. 1 (IIHRGKPFQLEAV; listed as Dermatophoides pteronyssinus)”, in the test on Balb/c mice [1] (compared to NS treated mice), the “IL-5 levels in sera” value is given as “decreased” and the “IFN-γ levels in sera” value is “Significantly increased”. In the test on Balb/c mice [1] (Example 1, FIG. 3C, compared to NS treated mice), the “IL-5 levels in BALF” value is “significant reduction”. Besides, the “IFN-γ levels in BALF” value in the test on Balb/c mice [1] (Example 1, FIG. 3D, compared to NS treated mice) is “significant increase”. Further, in the test with Balb/c mice [2] (setting [5]), the “CD4^+” value came out at 56.0 percentage, the “CD8^+” value amounted to 9.8 percentage, the “IFN-γ^+/CD4^+” value is 27.8 percentage and the “IFN-γ^+/CD8^+” value turned out to be 16.8 percentage. In the test with Balb/c mice [2] (setting [5]), the “IL-5^+/CD4^+” value amounted to 17.7 percentage and the “IL-5^+/CD8^+” value stood at 9.5 percentage. For the same molecule, the “IL-5/IFN-γ (CD4)” value with Balb/c mice [2] (setting [6]) worked out at 0.6. Further, the “IL-5/IFN-γ (CD8)” value with Balb/c mice [2] (setting [7]) was determined as 0.6. Moreover, the “pathology: inflammatory cell infiltration and epithelium damage in the airway” value in the test on Balb/c mice [3] is on record as “reductions in airway inflammation”. Besides, in the test with Balb/c mice [4], the “Dp2 specific IgG1 production in the sera” value is given as “significantly reduced”, the “Dp2 specific IgG2a production in the sera” value was “increased” and the “Dp2 specific IgE production in the sera” value was “reduction of IgE”.

“Dp2 28-40A: altered TCR ligand of Dp2 28-40, residues at positions 34 and 36 substituted by alanine; amino acid sequence ID No. 2 (IIHRGKAFALEAV; listed as Dermatophoides pteronyssinus)”: in the test with Balb/c mice [1] (compared to NS treated mice), the “IL-5 levels in sera” value is listed as “decreased” and the “IFN-γ levels in sera” value is “Significantly increased”. Moreover, in the test on Balb/c mice [2] (setting [5]), the “CD4^+” value is 51.8 percentage, the “CD8^+” value stood at 10.7 percentage, the “IFN-γ^+/CD4^+” value amounted to 11.4 percentage and the “IFN-γ^+/CD8^+” value is 5.8 percentage. For the same molecule, in the test with Balb/c mice [2] (setting [5]), the “IL-5^+/CD4^+” value came out at 11.4 percentage and the “IL-5^+/CD8^+” value was 3.5 percentage. Moreover, the “IL-5/IFN-γ (CD4)” value with Balb/c mice [2] (setting [6]) stood at 1.0. Besides, the “IL-5/IFN-γ (CD8)” value in the test on Balb/c mice [2] (setting [7]) was found to be 0.6. The “pathology: inflammatory cell infiltration and epithelium damage in the airway” value in the test with Balb/c mice [3] is recorded as “reductions in airway inflammation”. Further, in the test on Balb/c mice [4], the “Dp2 specific IgG1 production in the sera” value is “significantly reduced”, the “Dp2 specific IgG2a production in the sera” value was “increased” and the “Dp2 specific IgE production in the sera” value is listed as “reduction of IgE was observed only in the group of Dp2 28-40”.

B1: FIP: fungal immunomodulatory protein isolated from Flammalina velutipes, amino acid sequence ID No. 3 (protein)
chain: SATSLTFQLAVLVKKIDFDYTPNWGRGTPSSYIDNLTFPKVLTDKKYSYRVVVNGSDLGVESNFAVTPSGGQTINFLQYNKGYGVADTKTIQVFVVIPDTGNSEEYIIAEWKKT
modifications: Flammalina velutipes
In the test with Balb/c mice [1] (BALF), B1 gave an IFN-γ of 8.3 ± 0.4 pg/mL and an IL-5 of 19.3 ± 1.9 pg/mL. In addition, in the test on Balb/c mice [1] (Sera), the IFN-γ is listed as 52.0 ± 1.9 pg/mL and the IL-5 was 77.6 ± 1.9 pg/mL. Also, in the test with Balb/c mice [2] (setting [8]), the CD4 is 29.1 percentage, the CD8 came to 7.0 percentage, the “IFN-γ^+/CD4^+” value came out at 13.7 percentage and the “IFN-γ^+/CD8^+” value stood at 5.0 percentage. Also, in the test on Balb/c mice [2] (setting [8]), the “IL-5^+/CD4^+” value is given as 12.6 percentage and the “IL-5^+/CD8^+” value is 8.4 percentage. In addition, the “IL-5/IFN-γ (CD4)” value with Balb/c mice [2] (Example 2, ratio, CD4 cells) is reported as 0.9. The “IL-5/IFN-γ (CD8)” value in the test with Balb/c mice [2] (Example 2, ratio, CD8 cells) stood at 1.7. Further, the “pathology: inflammatory-cell infiltration and epithelial damage in the airways” value in the test on Balb/c mice [3] (Example 2, FIGS. 9A-9F) is recorded as “reduction in the level of airway inflammation”. Moreover, the “Dp2 specific IgG1 production in sera” value with Balb/c mice [4] (Example 2, FIG. 7A, compared with NS) is on record as “significantly reduced”. Moreover, the “Dp2 specific IgG2a production in sera” value with Balb/c mice [4] (Example 2, FIG. 7B, compared with NS) was “significantly increased”. Further, the “Dp2 specific IgE production in sera” value with Balb/c mice [4] (Example 2, FIG. 7C, compared with NS) is recorded as “significantly reduced”.
